This note sets out measurements from patent EP2439197A1, “Substituted benzimidazole derivatives as melanocortin 4 receptor antagonists” (Santhera Pharmaceuticals (Schweiz) AG, priority 2010, dated 2012).

Read-outs that look alike come from different tables or passages of the source.

Assay [1] has as its target T1, hMC-4R (Homo sapiens, UniProt P32245).
T1 construct: expressed in transfected cells; host or cells: HEK293 cells (membrane preparations)
The assay can be described thus: membrane binding assay, competition with fluorescence labeled NDP-alpha-MSH (fluorescence polarization). As to the method:
A membrane binding assay is used to identify competitive inhibitors of fluorescence labeled NDP-alpha-MSH binding to HEK293 cell membrane preparations expressing human melanocortin receptors.
The test compound or unlabeled NDP-alpha-MSH is dispensed at varying concentrations to a 384 well microtiter plate. Fluorescence labeled NDP-alpha-MSH is dispensed at a single concentration, followed by addition of membrane preparations. The plate is incubated for 5 h at room temperature.
The degree of fluorescence polarization is determined with a fluorescence polarization microplate reader.
Background: Fluorescence polarisation rises when a labelled molecule tumbles more slowly, as on binding a larger partner.

For assay [2], the target named is T1, hMC-4R. Put plainly: functional assay, homogeneous membrane based cAMP fluorescence polarization assay. Type of assay: biochemical. The note with it: for Emax: read-out: % activation functional assay.
Where [3] appears, read: HEK293 cell membrane preparations expressing human melanocortin receptors, read-out: hMC-4R binding assay IC50/µM.

T1 sequence (P32245 whole entry): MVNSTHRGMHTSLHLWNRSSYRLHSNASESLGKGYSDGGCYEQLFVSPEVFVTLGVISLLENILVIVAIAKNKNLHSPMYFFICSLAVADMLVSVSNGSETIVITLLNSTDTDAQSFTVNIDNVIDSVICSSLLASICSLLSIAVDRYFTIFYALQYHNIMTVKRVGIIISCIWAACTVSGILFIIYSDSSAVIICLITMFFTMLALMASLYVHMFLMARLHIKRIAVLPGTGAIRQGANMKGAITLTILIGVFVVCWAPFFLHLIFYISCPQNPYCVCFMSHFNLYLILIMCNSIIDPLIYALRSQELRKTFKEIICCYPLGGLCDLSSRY

At hMC-4R [1], `CC(C)CCN(CCC(C)C)C(=O)c1ccc2nc(C3CCN(C)CC3)n(CCCN3CCCC3)c2c1` [Example 24] yielded an IC50 of less than 0.1 µM. Further, at hMC-4R [2], the EC50 is less than 0.1 µM and the Emax is -44%.

For the compound `CCCCN(CCCC)C(=O)c1ccc2nc(CC3CCN(C4COC4)CC3)n(CCCN3CCCC3)c2c1` [Example 20], the IC50 on hMC-4R [1] is less than 1 µM. The Emax on hMC-4R [2] was determined as 0%.

Turning to `CC(C)CCN(CCC(C)C)C(=O)c1ccc2nc(C3CCC(=O)NC3)n(CCCN3CCCC3)c2c1` (stereo not shown) [Example 35], the IC50 at hMC-4R [1] was less than 1 µM. For the same compound, on hMC-4R [2], the Emax is -11%.

In turn, `CC(C)CCN(CCC(C)C)C(=O)c1ccc2nc(CC3CCN(C)CC3)n(CCCN3CCCC3)c2c1` [Example 29] had an IC50 at hMC-4R [1] of less than 0.1 µM. For the same compound, the Emax at hMC-4R [2] was -10%.

On hMC-4R [1], `COc1ccc(C2(c3nc4ccc(C(=O)N(CCC(C)C)CCC(C)C)cc4n3CCCN3CCCC3)CC2)cn1` [Example 6] showed an IC50 of less than 1 µM. Besides, the Emax at hMC-4R [2] is -11%.

With `CC(C)CCN(CCC(C)C)C(=O)c1ccc2nc(C3CNC(=O)C3)n(CCCN3CCCC3)c2c1` (stereo not shown) [Example 34], the IC50 on hMC-4R [1] is less than 0.1 µM. Further, at hMC-4R [2], the Emax is -10%.

`CC(C)CCN(CCC(C)C)C(=O)c1ccc2nc(C3CCNCC3)n(CCCN3CCCC3)c2c1` [Example 23] had an IC50 on hMC-4R [1] of less than 0.1 µM. In addition, on hMC-4R [2], the EC50 is less than 0.1 µM and the Emax was -39%.

`CC(C)CCN(CCC(C)C)C(=O)c1ccc2nc(C3CCNCC3)n(CCCN3CCCC3C)c2c1` (stereo not shown) [Example 26] returned an IC50 on hMC-4R [1] of less than 0.1 µM. Also, the Emax at hMC-4R [2] is -12%.

At hMC-4R [1], `CC(C)CCN(CCC(C)C)C(=O)c1ccc2nc(C3CCC(=O)N(C)C3)n(CCCN3CCCC3)c2c1` (stereo not shown) [Example 37] gave an IC50 of less than 1 µM. In addition, the Emax at hMC-4R [2] is -2%.

Take `CCCCN(CCCC)C(=O)c1ccc2nc(CC3CCN(C(=O)OC(C)(C)C)CC3)n(CCCN3CCCC3)c2c1` [Example 19]: at hMC-4R [1], the IC50 was less than 0.1 µM. At hMC-4R [2], the EC50 is less than 0.1 µM and the Emax is -33%.

In the case of `CC(C)CCN(CCC(C)C)C(=O)c1ccc2nc(C3CN(C(=O)OC(C)(C)C)C3)n(CCCN3CCCC3)c2c1` [Example 16], at hMC-4R [1] (setting [3]), the IC50 was less than 0.1 µM. In addition, the Emax on hMC-4R [2] is -9%.

At hMC-4R [1], `CC(C)CCN(CCC(C)C)C(=O)c1ccc2nc(C3CCN(C(=O)OC(C)(C)C)CC3)n(CCCN3CCCC3C)c2c1` (stereo not shown) [Example 12] had an IC50 of less than 0.1 µM. Moreover, at hMC-4R [2], the EC50 was less than 0.1 µM and the Emax was -40%.

Take `CC(C)CCN(CCC(C)C)C(=O)c1ccc2nc(CC3CCNCC3)n(CCCN3CCCC3)c2c1` [Example 28]: the IC50 at hMC-4R [1] (setting [3]) was less than 0.1 µM. In addition, the Emax at hMC-4R [2] was -6%.

Take `CC(C)CCN(CCC(C)C)C(=O)c1ccc2nc(C3CNC3)n(CCCN3CCCC3)c2c1` [Example 31]: the IC50 on hMC-4R [1] was less than 0.1 µM. At hMC-4R [2], the EC50 was 0.1 to 1 µM and the Emax was -32%.

In the case of `CCCCN(CCCC)C(=O)c1ccc2nc(CC3CCN(C)CC3)n(CCCN3CCCC3)c2c1` [Example 39], at hMC-4R [1], the IC50 was less than 0.1 µM. The Emax on hMC-4R [2] was -8%.

Turning to `CC(C)CCN(CCC(C)C)C(=O)c1ccc2nc(CC3CCN(CCO)CC3)n(CCCN3CCCC3)c2c1` [Example 14], the IC50 on hMC-4R [1] is less than 0.1 µM. The Emax on hMC-4R [2] was -18%.

`CC(C)CCN(CCC(C)C)C(=O)c1ccc2nc(-c3ccc(=O)[nH]c3)n(CC(O)CN3CCCC3)c2c1` (stereo not shown) [Example 1] returned an IC50 at hMC-4R [1] of less than 1 µM. The Emax on hMC-4R [2] was -15%.

Consider `CC(C)CCN(CCC(C)C)C(=O)c1ccc2nc(-c3ccc(=O)[nH]c3)n(CC(F)CN3CCCC3)c2c1` (stereo not shown) [Example 2], for which the IC50 on hMC-4R [1] is less than 0.1 µM. In addition, the Emax on hMC-4R [2] is -11%.

`CCCCN(CCCC)C(=O)c1ccc2nc(CC3CCNCC3)n(CCCN3CCCC3)c2c1` [Example 38] showed an IC50 at hMC-4R [1] of less than 0.1 µM. For the same compound, at hMC-4R [2], the Emax was -5%.

For the compound `CC(C)CCN(CCC(C)C)C(=O)c1ccc2nc(-c3ccc(=O)[nH]c3)n(CCCN3CCCCC3)c2c1` [Example 22], the IC50 at hMC-4R [1] (setting [3]) was less than 0.1 µM. Moreover, the Emax on hMC-4R [2] is -12%.

In the case of `CC(C)CCN(CCC(C)C)C(=O)c1ccc2nc(CN3CCN(C)CC3)n(CCCN3CCCC3)c2c1` [Example 8], the IC50 at hMC-4R [1] (setting [3]) is less than 0.1 µM. Further, on hMC-4R [2], the Emax was -6%.

Regarding `COc1ccc(-c2nc3ccc(C(=O)N(CCC(C)C)CCC(C)C)cc3n2CC(O)CN2CCCC2)cn1` (stereo not shown) [Example 3], the IC50 on hMC-4R [1] (setting [3]) was less than 0.1 µM. For the same compound, on hMC-4R [2] (membrane preparations from HEK293 cells, cAMP production, read-out: hMC-4R functional assay EC50/µM), the EC50 is 0.1 to 1 µM. In addition, the Emax at hMC-4R [2] is -25%.

As to `CC(C)CCN(CCC(C)C)C(=O)c1ccc2nc(-c3ncco3)n(CC(O)CN3CCCC3)c2c1` (stereo not shown) [Example 4], the IC50 at hMC-4R [1] was less than 0.1 µM. Also, at hMC-4R [2], the EC50 is less than 0.1 µM and the Emax was -28%.

For the compound `CC(C)CCN(CCC(C)C)C(=O)c1ccc2nc(CN3CCN(C(C)C)CC3)n(CCCN3CCCC3)c2c1` [Example 10], at hMC-4R [1], the IC50 was less than 1 µM. Further, the Emax at hMC-4R [2] is 0%.

The compound `CC(C)CCN(CCC(C)C)C(=O)c1ccc2nc(-c3cnc(O)nc3)n(CCCN3CCCC3)c2c1` [Example 30] came in with an IC50 at hMC-4R [1] of less than 1 µM. The Emax on hMC-4R [2] was -12%.

`CC(C)CCN(CCC(C)C)C(=O)c1ccc2nc(CN3CCN(CCO)CC3)n(CCCN3CCCC3)c2c1` [Example 9]: the IC50 on hMC-4R [1] was less than 0.1 µM. Further, the Emax at hMC-4R [2] was -9%.

For the compound `CC(C)CCN(CCC(C)C)C(=O)c1ccc2nc([C@H]3CC[C@H](N(C)C)CC3)n(CCCN3CCCC3)c2c1` [Example 17], at hMC-4R [1], the IC50 was less than 0.1 µM. Besides, at hMC-4R [2], the Emax was -6%.

On hMC-4R [1], `CC(C)CCN(CCC(C)C)C(=O)c1ccc2nc(-c3ccc(=O)[nH]c3)n(CCCN3CCCC3)c2c1` [Example 21] came in with an IC50 of less than 0.1 µM. The Emax on hMC-4R [2] is -14%.

As to `CC(C)CCN(CCC(C)C)C(=O)c1ccc2nc(-c3ccc(=O)[nH]c3)n(CCCN3CCCC3C)c2c1` (stereo not shown) [Example 25], the IC50 on hMC-4R [1] was less than 0.1 µM. Besides, on hMC-4R [2], the EC50 was less than 0.1 µM and the Emax is -37%.

With `COc1cc(C2(c3nc4ccc(C(=O)N(CCC(C)C)CCC(C)C)cc4n3CCCN3CCCC3)CC2)ccn1` [Example 5], the IC50 on hMC-4R [1] is less than 1 µM. Also, on hMC-4R [2], the Emax was -6%.

With `CC(C)CCN(CCC(C)C)C(=O)c1ccc2nc(CC3CCN(C(=O)OC(C)(C)C)CC3)n(CCCN3CCCC3)c2c1` [Example 13], the IC50 at hMC-4R [1] is less than 0.1 µM. For the same compound, on hMC-4R [2], the Emax is -7%.

Compound `CC(C)CCN(CCC(C)C)C(=O)c1ccc2nc(C3CCN(C)C(=O)C3)n(CCCN3CCCC3)c2c1` (stereo not shown) [Example 36] had an IC50 on hMC-4R [1] of less than 1 µM. In addition, on hMC-4R [2], the Emax is -5%.

Consider `CC(C)CCN(CCC(C)C)C(=O)c1ccc2nc(C3CCN(C(=O)OC(C)(C)C)CC3)n(CCCN3CCCC3)c2c1` [Example 11], for which, on hMC-4R [1], the IC50 is less than 0.1 µM. In addition, at hMC-4R [2], the EC50 was less than 0.1 µM and the Emax was -33%.

`CC(C)CCN(CCC(C)C)C(=O)c1ccc2nc(C3CCN(C)CC3)n(CCCN3CCCC3C)c2c1` (stereo not shown) [Example 27]: the IC50 at hMC-4R [1] (setting [3]) is less than 0.1 µM. Further, the Emax at hMC-4R [2] is -2%.

In the case of `CC(C)CCN(CCC(C)C)C(=O)c1ccc2nc([C@H]3CC[C@@H](N(C)C)CC3)n(CCCN3CCCC3)c2c1` [Example 18], the IC50 at hMC-4R [1] is less than 0.1 µM. Moreover, the Emax on hMC-4R [2] was -19%.

At hMC-4R [1], `CC(C)CCN(CCC(C)C)C(=O)c1ccc2nc(CC3CCN(C4COC4)CC3)n(CCCN3CCCC3)c2c1` [Example 15] registered an IC50 of less than 0.1 µM. The Emax at hMC-4R [2] is -11%.

For `CC(C)CCN(CCC(C)C)C(=O)c1ccc2nc(N3CCN(C)CC3)n(CCCN3CCCC3)c2c1` [Example 7], the IC50 on hMC-4R [1] lay in the range of 1 to 10 µM. For the same compound, at hMC-4R [2], the Emax is -4%.

In turn, `CC(C)CCN(CCC(C)C)C(=O)c1ccc2nc(C3CN(C)C3)n(CCCN3CCCC3)c2c1` [Example 32] gave an IC50 at hMC-4R [1] of less than 0.1 µM. On hMC-4R [2], the EC50 is less than 0.1 µM and the Emax was -18%.

At hMC-4R [1], `COc1cc(Cc2nc3ccc(C(=O)N(CCC(C)C)CCC(C)C)cc3n2CCCN2CCCC2)ccn1` [Example 33] displayed an IC50 of less than 0.1 µM. The Emax on hMC-4R [2] was 0%.
